For orientation: IC50 means the concentration that gives 50% inhibition. A low value points to inhibition by little substance.

The test system of this experiment is A2780 human ovarian cancer cells. In words: In vitro cell proliferation assay (CellTiter-Glo). It counts as cell-based. The conditions noted are these: 72 hours treatment. How it is done: A2780 human ovarian and MCF7 human breast cancer cells (1250 cells/well) were seeded in white 384 well-plates in complete medium (RPMI 1640 or EMEM plus 10% Fetal bovine serum) and treated with compounds dissolved in 0.1% DMSO, 24 h after seeding. The cells were incubated at 37° C. and 5% CO2 and after 72 hours the plates were processed using CellTiter-Glo assay (Promega) following the manufacturer's instruction. CellTiter-Glo is a homogenous method based on the quantification of the ATP present, an indicator of metabolitically active cells. ATP is quantified using a system based on luciferase and D-luciferin resulting into light generation. The luminescent signal is proportional to the number of cells present in culture.
Briefly 25 μl/well reagent solution were added to each well and after 5 minutes shacking microplates were red by Envision (PerkinElmer) luminometer. The luminescent signal was proportional to the number of cells present in culture.
Inhibitory activity was evaluated comparing treated versus control data using Assay Explorer (MDL) program. IC50 was calculated using sigmoidal interpolation curve.
For orientation: Cellular ATP, detected with luciferase, serves as a proxy for viable cell number.
As to `Cn1nc(C(=O)N(O)C2CCCCC2)c2c1-c1nc(NC3CCCC3)ncc1CC2` [Prior art compound, N-cyclohexyl-8-(cyclopentylamino)-N-hydroxy-1-methyl-4,5-dihydro-1H-pyrazolo[4,3-h]quinazoline-3-carboxamide, reference compound], it took 3400 nM to reach half-maximal inhibition (IC50). For `CCc1cccc(CC)c1NC(=O)c1nn(C)c2c1CCc1cnc(Nc3ccc(C(N)=O)cc3OC)nc1-2` [Compound 13, 8-[(4-carbamoyl-2-methoxyphenyl)amino]-N-(2,6-diethylphenyl)-1-methyl-4,5-dihydro-1H-pyrazolo[4,3-h]quinazoline-3-carboxamide] the value was 100 nM; for `CCc1cccc(CC)c1NC(=O)c1nn(C)c2c1CCc1cnc(NC3CCN(S(C)(=O)=O)CC3)nc1-2` [Compound 57, N-(2,6-diethylphenyl)-1-methyl-8-{[1-(methylsulfonyl)piperidin-4-yl]amino}-4,5-dihydro-1H-pyrazolo[4,3-h]quinazoline-3-carboxamide], 130 nM.

`CCc1cccc(CC)c1NC(=O)c1nn(C)c2c1CCc1cnc(Nc3ccc(N4CCN(C)CC4)cc3OC(F)(F)F)nc1-2` [Compound 3, N-(2,6-diethylphenyl)-1-methyl-8-{[4-(4-methylpiperazin-1-yl)-2-(trifluoromethoxy)phenyl]amino}-4,5-dihydro-1H-pyrazolo[4,3-h]quinazoline-3-carboxamide] displayed a concentration for half-maximal inhibition (IC50) of 350 nM. As for `CCc1cccc(CC)c1NC(=O)c1nn(C)c2c1CCc1cnc(NC3CCN(S(=O)(=O)CCNC)CC3)nc1-2` [Compound 56, N-(2,6-diethylphenyl)-1-methyl-8-[(1-{[2-(methylamino)ethyl]sulfonyl}piperidin-4-yl)amino]-4,5-dihydro-1H-pyrazolo[4,3-h]quinazoline-3-carboxamide], the figure is 150 nM.

Turning to `CCc1cccc(CC)c1NC(=O)c1nn(C)c2c1CCc1cnc(Nc3ccc(N(C)CCCN(C)C)cc3OC)nc1-2` [Compound 7, N-(2,6-diethylphenyl)-8-[(4-{[3-(dimethylamino)propyl](methyl)amino}-2-methoxyphenyl)amino]-1-methyl-4,5-dihydro-1H-pyrazolo[4,3-h]quinazoline-3-carboxamide], half-maximal inhibition (IC50) required 140 nM. The IC50 values of the last two compounds are within 1.5-fold of each other. For `CCc1cccc(CC)c1NC(=O)c1nn(C)c2c1CCc1cnc(Nc3ccc(N4CCN(C)CC4)cc3OC)nc1-2` [Compound 5, N-(2,6-diethylphenyl)-8-{[2-methoxy-4-(4-methylpiperazin-1-yl)phenyl]amino}-1-methyl-4,5-dihydro-1H-pyrazolo[4,3-h]quinazoline-3-carboxamide] the value was 100 nM; for `CCc1cccc(CC)c1NC(=O)c1nn(C)c2c1CCc1cnc(Nc3ccc(C(=O)NC4CCN(C)CC4)cc3OC)nc1-2` [Compound 2, N-(2,6-diethylphenyl)-8-({2-methoxy-4-[(1-methylpiperidin-4-yl)carbamoyl]phenyl}amino)-1-methyl-4,5-dihydro-1H-pyrazolo[4,3-h]quinazoline-3-carboxamide], 150 nM. As for `CCc1cccc(CC)c1NC(=O)c1nn(C)c2c1CCc1cnc(NC3CCN(C(=O)CCNC)CC3)nc1-2` [Compound 66, N-(2,6-diethylphenyl)-1-methyl-8-{[1-(N-methyl-beta-alanyl)piperidin-4-yl]amino}-4,5-dihydro-1H-pyrazolo[4,3-h]quinazoline-3-carboxamide], the figure is 650 nM.

These data come from patent US8846701B2, “Pyrazolo-quinazolines” (Nerviano Medical Sciences S.R.L., priority 2008, dated 2014).
